experiment: HILIC, HILICON iHILIC-(P) Classic, HILIC, PEEK, 50 × 2.1 mm, 5 µm, 45 °C, 0.12 mL/min, estimated dead time 0.92 min; A: water + 20 mM ammonium carbonate; B: acetonitrile; gradient (min/%B) 0/90 1/90 21/20 21.5/20 26.5/20 27.5/90 35/90; conditions: stereoisomer not certain

LC retention time	Compound
12.2 min	Nc1ncnc2c1ncn2C1OC(COP(=O)(O)OP(=O)(O)O)C(O)C1O (stereo not drawn) [ADP]
8.49 min	Nc1ncnc2c1ncn2C1OC(COP(=O)(O)O)C(O)C1O (stereo not drawn) [AMP]
13.6 min	Nc1ncnc2c1ncn2C1OC(COP(=O)(O)OP(=O)(O)OP(=O)(O)O)C(O)C1O (stereo not drawn) [ATP]
8.69 min	CC(=O)SCCNC(=O)CCNC(=O)C(O)C(C)(C)COP(=O)(O)OP(=O)(O)OCC1OC(n2cnc3c(N)ncnc32)C(O)C1OP(=O)(O)O (stereo not drawn) [Acetyl-CoA]
3.42 min	Nc1ncnc2nc[nH]c12 [Adenine]
3.57 min	Nc1ncnc2c1ncn2C1OC(CO)C(O)C1O (stereo not drawn) [Adenosine]
9.37 min	O=C1OC(C(O)CO)C(O)=C1O (stereo not drawn) [Ascorbic Acid]
10.8 min	NC(=O)CC(N)C(=O)O (stereo not drawn) [Asparagine]
3.35 min	O=C(O)CCCCC1SCC2NC(=O)NC21 (stereo not drawn) [Biotin]
13.2 min	Nc1ccn(C2OC(COP(=O)(O)OP(=O)(O)O)C(O)C2O)c(=O)n1 (stereo not drawn) [CDP]
10.9 min	Nc1ccn(C2OC(COP(=O)(O)O)C(O)C2O)c(=O)n1 (stereo not drawn) [CMP]
16.4 min	O=C(O)CC(O)(CC(=O)O)C(=O)O [Citric acid]
11.6 min	NC(CSSCC(N)C(=O)O)C(=O)O (stereo not drawn) [Cystine]
5.92 min	Nc1ccn(C2OC(CO)C(O)C2O)c(=O)n1 (stereo not drawn) [Cytidine]
14.3 min	Nc1nc2ncc(CNc3ccc(C(=O)NC(CCC(=O)O)C(=O)O)cc3)nc2c(=O)[nH]1 (stereo not drawn) [Folic Acid]
16.3 min	O=P(O)(O)OCC1OC(O)(COP(=O)(O)O)C(O)C1O (stereo not drawn) [Fructose-1,6-bisphosphate]
15.2 min	Nc1nc2c(ncn2C2OC(COP(=O)(O)OP(=O)(O)O)C(O)C2O)c(=O)[nH]1 (stereo not drawn) [GDP]
14.2 min	Nc1nc2c(ncn2C2OC(COP(=O)(O)O)C(O)C2O)c(=O)[nH]1 (stereo not drawn) [GMP]
8.5 min	NC(CCC(=O)NC(CS)C(=O)NCC(=O)O)C(=O)O (stereo not drawn) [GSH]
15.3 min	NC(CCC(=O)NC(CSSCC(NC(=O)CCC(N)C(=O)O)C(=O)NCC(=O)O)C(=O)NCC(=O)O)C(=O)O (stereo not drawn) [GSSG]

LC retention time	Compound
17.1 min	Nc1nc2c(ncn2C2OC(COP(=O)(O)OP(=O)(O)OP(=O)(O)O)C(O)C2O)c(=O)[nH]1 (stereo not drawn) [GTP]
9.69 min	NC(CCC(=O)O)C(=O)O (stereo not drawn) [Glutamic acid]
8.36 min	NC(=O)CCC(N)C(=O)O (stereo not drawn) [Glutamine]
10.9 min	O=P(O)(O)OCC(O)CO (stereo not drawn) [Glycerol-3-phosphate]
6.69 min	Nc1nc2c(ncn2C2OC(CO)C(O)C2O)c(=O)[nH]1 (stereo not drawn) [Guanosine]
15.9 min	O=C(O)CC(C(=O)O)C(O)C(=O)O (stereo not drawn) [Isocitric acid]
5.72 min	CCC(C)C(N)C(=O)O (stereo not drawn) [Isoleucine]
2.81 min	CC(O)C(=O)O (stereo not drawn) [Lactic Acid]
5.45 min	CC(C)CC(N)C(=O)O (stereo not drawn) [Leucine]
18.8 min	NCCCCC(N)C(=O)O (stereo not drawn) [Lysine]
13.1 min	O=C(O)CC(O)C(=O)O (stereo not drawn) [Malic Acid]
9.39 min	O=C(O)CC(=O)O [Malonic Acid]
5.91 min	CSCCC(N)C(=O)O (stereo not drawn) [Methionine]
9.96 min	CC(=O)NC(CC(=O)O)C(=O)O (stereo not drawn) [N-Acetylaspartic acid]
9.33 min	NC(=O)C1=CN(C2OC(COP(=O)(O)OP(=O)(O)OCC3OC(n4cnc5c(N)ncnc54)C(O)C3O)C(O)C2O)C=CC1 (stereo not drawn) [NADH]
16.8 min	NC(=O)C1=CN(C2OC(COP(=O)(O)OP(=O)(O)OCC3OC(n4cnc5c(N)ncnc54)C(OP(=O)(O)O)C3O)C(O)C2O)C=CC1 (stereo not drawn) [NADPH]
13.5 min	NC(=O)c1ccc[n+](C2OC(COP(=O)(O)OP(=O)(O)OCC3OC(n4cnc5c(N)ncnc54)C(OP(=O)(O)O)C3O)C(O)C2O)c1 (stereo not drawn) [NADP]
8.93 min	NC(=O)c1ccc[n+](C2OC(COP(=O)(O)OP(=O)(O)OCC3OC(n4cnc5c(N)ncnc54)C(O)C3O)C(O)C2O)c1 (stereo not drawn) [NAD]
9.43 min	NC(=O)c1ccc[n+](C2OC(COP(=O)([O-])O)C(O)C2O)c1 (stereo not drawn) [NMN]
1.66 min	O=C(O)c1cccnc1 [Nicotinic acid]

LC retention time	Compound
18.1 min	NCCCC(N)C(=O)O (stereo not drawn) [Ornithine]
13.7 min	C=C(OP(=O)(O)O)C(=O)O [PEP]
4.97 min	NC(Cc1ccccc1)C(=O)O (stereo not drawn) [Phenylalanine]
13.5 min	O=C(O)C(CO)OP(=O)(O)O (stereo not drawn) [Phosphoglyceric acid A]
6.81 min	O=C(O)C1CCCN1 (stereo not drawn) [Proline]
6.43 min	O=C(O)C1(O)CC(O)C(O)C(O)C1 (stereo not drawn) [Quinic Acid]
8.59 min	NC(CO)C(=O)O (stereo not drawn) [Serine]
11.8 min	O=C(O)CCC(=O)O [Succinic Acid]
13 min	Cc1ncc(C[n+]2csc(CCO)c2C)c(N)n1 [Thiamine]
8.21 min	CC(O)C(N)C(=O)O (stereo not drawn) [Threonine]
11.3 min	O=C(CO)COP(=O)(O)O [Triose phosphate]
6.18 min	NC(Cc1c[nH]c2ccccc12)C(=O)O (stereo not drawn) [Tryptophan]
6.98 min	NC(Cc1ccc(O)cc1)C(=O)O (stereo not drawn) [Tyrosine]
11.7 min	CC(=O)NC1C(OP(=O)(O)OP(=O)(O)OCC2OC(n3ccc(=O)[nH]c3=O)C(O)C2O)OC(CO)C(O)C1O (stereo not drawn) [UDP-GlcNAc]
12.2 min	O=c1ccn(C2OC(COP(=O)(O)OP(=O)(O)O)C(O)C2O)c(=O)[nH]1 (stereo not drawn) [UDP]
9.52 min	O=c1ccn(C2OC(COP(=O)(O)O)C(O)C2O)c(=O)[nH]1 (stereo not drawn) [UMP]
14.3 min	O=c1ccn(C2OC(COP(=O)(O)OP(=O)(O)OP(=O)(O)O)C(O)C2O)c(=O)[nH]1 (stereo not drawn) [UTP]
6.71 min	CC(C)C(N)C(=O)O (stereo not drawn) [Valine]
